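At the GI50, growth is halved. At the TGI there is no net growth.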
Key:
Test in all cases: NCI tumour cell line growth inhibition, 384-well format
[1] = test system: 786-0 renal
[2] = test system: A498 renal
[3] = test system: A549 NSCLC
[4] = test system: ACHN renal
[5] = test system: BT-549 breast
[6] = test system: CAKI-1 renal
[7] = test system: CCRF-CEM leukemia
[8] = test system: COLO 205 colon
[9] = test system: DU-145 prostate
[10] = test system: EKVX NSCLC
[11] = test system: HCC-2998 colon
[12] = test system: HCT-15 colon
[13] = test system: HL-60(TB) leukemia
[14] = test system: HOP-62 NSCLC
[15] = test system: HOP-92 NSCLC
[16] = test system: HS 578T breast
[17] = test system: HT29 colon
[18] = test system: IGROV1 ovarian
[19] = test system: K-562 leukemia
[20] = test system: KM12 colon
[21] = test system: LOX IMVI melanoma
[22] = test system: M14 melanoma
[23] = test system: MALME-3M melanoma
[24] = test system: MCF7 breast
[25] = test system: MDA-MB-231 breast
[26] = test system: MDA-MB-435 melanoma
[27] = test system: MDA-MB-468 breast
[28] = test system: MOLT-4 leukemia
[29] = test system: NCI-H226 lung
[30] = test system: NCI-H23 lung
[31] = test system: NCI-H322M lung
[32] = test system: NCI-H460 NSCLC
[33] = test system: NCI-H522 lung
[34] = test system: NCI/ADR-RES ovarian
[35] = test system: OVCAR-3 ovarian
[36] = test system: OVCAR-4 ovarian
[37] = test system: OVCAR-5 ovarian
[38] = test system: OVCAR-8 ovarian
[39] = test system: PC-3 prostate
[40] = test system: RPMI-8226 leukemia
[41] = test system: RXF 393 renal
[42] = test system: SF-268 CNS
[43] = test system: SF-295 CNS
[44] = test system: SF-539 CNS
[45] = test system: SK-MEL-28 melanoma
[46] = test system: SK-MEL-5 melanoma
[47] = test system: SK-OV-3 ovarian
[48] = test system: SN12C renal
[49] = test system: SNB-19 CNS
[50] = test system: SNB-75 CNS
[51] = test system: SR leukemia
[52] = test system: SW-620 colon
[53] = test system: T-47D breast
[54] = test system: TK-10 renal
[55] = test system: U251 glioblastoma
[56] = test system: UACC-257 melanoma
[57] = test system: UACC-62 melanoma
[58] = test system: UO-31 renal

With `CC(CN(C)C)S(=O)(=O)c1ccc(-c2cnc(N)c(C(=O)Nc3ccccc3)n2)cc1` (stereo unspecified) the GI50 [1] was 753 nM, the TGI [1] was 2660 nM and the GI50 [2] was 343 nM. The TGI [2] was 1350 nM, the GI50 [3] was 2170 nM and the TGI [3] was 27.5 µM. For the same molecule, the GI50 [4] was 979 nM, the TGI [4] was 7.41 µM and the GI50 [5] was 556 nM. For the same molecule, the TGI [5] was 2690 nM, the GI50 [6] was 2770 nM and the TGI [6] was 14.7 µM. The GI50 [7] was 519 nM, the TGI [7] was 1660 nM and the GI50 [8] was 2250 nM. For the same molecule, the TGI [8] was 5.9 µM, the GI50 [9] was 2900 nM and the TGI [9] was 13.4 µM. For the same molecule, the GI50 [10] was 8.14 µM, the TGI [10] was 31.3 µM and the GI50 [11] was 314 nM. It also gave a TGI [11] of 937 nM, a GI50 [12] of 1030 nM and a TGI [12] of 2430 nM. The GI50 [13] was 1490 nM, the TGI [13] was 2830 nM and the GI50 [14] was 2300 nM. The TGI [14] was 14.1 µM, the GI50 [15] was 1400 nM and the TGI [15] was 10.8 µM. The GI50 [16] was 837 nM, the TGI [16] was 3.17 µM and the GI50 [17] was 1610 nM. The TGI [17] was 3.69 µM, the GI50 [18] was 1990 nM and the TGI [18] was 5.27 µM. For the same molecule, the GI50 [19] was 1890 nM, the TGI [19] was 3.53 µM and the GI50 [20] was 2790 nM. The TGI [20] was 12.3 µM, the GI50 [21] was 2480 nM and the TGI [21] was 11.5 µM. The GI50 [22] was 1730 nM, the TGI [22] was 10.7 µM and the GI50 [23] was 1810 nM. The TGI [23] was 5.29 µM, the GI50 [24] was 844 nM and the TGI [24] was 13.4 µM. It also gave a GI50 [25] of 12.9 µM, a TGI [25] of 36.3 µM and a GI50 [26] of 3.82 µM. For the same molecule, the TGI [26] was 16.1 µM, the GI50 [27] was 412 nM and the TGI [27] was 1340 nM. For the same molecule, the GI50 [28] was 515 nM, the TGI [28] was 1620 nM and the GI50 [29] was 3.25 µM. The TGI [29] was 12.9 µM, the GI50 [30] was 1070 nM and the TGI [30] was 4.51 µM. It also gave a GI50 [31] of 1100 nM, a TGI [31] of 15.5 µM and a GI50 [32] of 696 nM. The TGI [32] was 6.72 µM, the GI50 [33] was 10.3 µM and the TGI [33] was 22.3 µM. The GI50 [34] was 3.11 µM, the TGI [34] was 15.1 µM and the GI50 [35] was 3.04 µM. It also gave a TGI [35] of 14.2 µM, a GI50 [36] of 1130 nM and a TGI [36] of 4.19 µM. For the same molecule, the GI50 [37] was 3.84 µM, the TGI [37] was 14 µM and the GI50 [38] was 3.82 µM. The TGI [38] was 14.9 µM, the GI50 [39] was 5.52 µM and the TGI [39] was 24.4 µM. The GI50 [40] was 1560 nM, the TGI [40] was 4.48 µM and the GI50 [41] was 2030 nM. It also gave a TGI [41] of 10.7 µM, a GI50 [42] of 3.49 µM and a TGI [42] of 12.4 µM. For the same molecule, the GI50 [43] was 2850 nM, the TGI [43] was 9.55 µM and the GI50 [44] was 1140 nM. For the same molecule, the TGI [44] was 2620 nM, the GI50 [45] was 2390 nM and the TGI [45] was 6.47 µM. For the same molecule, the GI50 [46] was 2270 nM, the TGI [46] was 6.06 µM and the GI50 [47] was 2180 nM. The TGI [47] was 13.1 µM, the GI50 [48] was 5.15 µM and the TGI [48] was 20 µM. It also gave a GI50 [49] of 4.56 µM, a TGI [49] of 18.5 µM and a GI50 [50] of 9.27 µM. For the same molecule, the TGI [50] was over 100 µM, the GI50 [51] was 385 nM and the TGI [51] was 1400 nM. It also gave a GI50 [52] of 1710 nM, a TGI [52] of 3.25 µM and a GI50 [53] of 9.82 µM. For the same molecule, the TGI [53] was 22.2 µM, the GI50 [54] was 993 nM and the TGI [54] was 7.61 µM. For the same molecule, the GI50 [55] was 2510 nM, the TGI [55] was 12.1 µM and the GI50 [56] was 1730 nM. It also gave a TGI [56] of 3.35 µM, a GI50 [57] of 2140 nM and a TGI [57] of 9.84 µM. For the same molecule, the GI50 [58] was 3.64 µM and the TGI [58] was over 100 µM.
